Assay results published in patent US11530186B2, “Inhibitors for the β-catenin / T-cell factor protein-protein interaction” (H. LEE MOFFITT CANCER CENTER AND RESEARCH INSTITUTE, INC., priority 2018, dated 2022).
Like-named read-outs stand apart in the source and are kept apart here.

What was measured:
[1] = tested on: SW480 cells; assay: MTS cell viability assay, SW480; type: cell-based; details: Homo sapiens, SW480, 72 h, mean ± SD (n = 3)
Method: (§1) MTS Cell Viability Assay. Colorectal cancer cells (SW480 and HCT116), TNBC cells (MDA-MB-231, MDA-MB-468, and BT-20), and lung cancer A549 cells were seeded in 96-well plates at 5×10^3 cells/well, maintained overnight at 37° C., and incubated with the tested compounds at various concentrations. Cell viability was monitored after 72 h using a freshly prepared mixture of 1 part phenazine methosulfate (PMS, Sigma) solution (0.92 mg/mL) and 19 parts 3-(4,5-dimethylthiazol-2-yl)-5-(3-carboxymethoxyphenyl)-2-(4-sulfophenyl)-2H-tetrazolium (MTS, Promega) solution (2 mg/mL). Cells were incubated in 10 μL of this solution at 37° C. for 3 h, and A490 was measured. The effect of each compound is expressed as the concentration required to reduce A490 by 50% (IC50) relative to DMSO-treated cells. Experiments were performed in triplicate.

[2] = target: T1, β-catenin/Tcf protein-protein interaction (Homo sapiens, UniProt P35222); assay: FP competitive inhibition assay; type: binding
T1 construct: Wild-type β-catenin (residues 138-781) were cloned into a pET-28b vector; 6×histidine (C); made in house; host or cells: E. coli BL21 DE3
T1 sequence (P35222 138-781): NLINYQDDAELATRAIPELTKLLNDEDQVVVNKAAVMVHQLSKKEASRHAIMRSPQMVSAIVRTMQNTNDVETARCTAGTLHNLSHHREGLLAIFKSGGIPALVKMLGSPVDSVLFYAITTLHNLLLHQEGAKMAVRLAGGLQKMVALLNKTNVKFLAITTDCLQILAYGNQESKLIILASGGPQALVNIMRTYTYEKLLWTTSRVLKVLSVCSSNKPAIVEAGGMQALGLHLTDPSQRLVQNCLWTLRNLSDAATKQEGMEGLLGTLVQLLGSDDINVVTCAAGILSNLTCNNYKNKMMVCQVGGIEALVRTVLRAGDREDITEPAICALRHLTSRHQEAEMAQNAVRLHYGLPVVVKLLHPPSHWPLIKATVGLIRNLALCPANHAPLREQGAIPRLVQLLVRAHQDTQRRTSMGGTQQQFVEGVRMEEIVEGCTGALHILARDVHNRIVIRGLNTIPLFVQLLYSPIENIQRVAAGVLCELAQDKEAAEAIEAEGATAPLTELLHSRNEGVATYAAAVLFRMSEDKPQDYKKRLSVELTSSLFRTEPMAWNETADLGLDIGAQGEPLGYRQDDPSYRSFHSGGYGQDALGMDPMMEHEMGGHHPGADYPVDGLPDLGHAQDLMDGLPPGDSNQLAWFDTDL
Procedure, shortened: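 His-tagged human β-catenin (residues 138-781, E. coli-expressed) at 10 nM with 2.5 nM fluorescein-labeled Tcf4 (7-51) in PBS-type buffer with bovine γ-globulin and 0.01% Triton X-100. Compounds added, 1.5 h at 4 °C, 1% DMSO, before fluorescence polarization read. IC50 by nonlinear fit; Ki derived from IC50.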

[3] = tested on: HCT116 cells; assay: MTS cell viability assay, HCT116; type: cell-based; details: Homo sapiens, HCT-116; 72 h; mean ± SD (n = 3); Table 5; read-out: MTS cell viability IC50, Wnt hyperactive cancer cells HCT116
Method: as §1

[4] = Table 5, read-out: MTS cell viability IC50, Wnt hyperactive cancer cells SW480
[5] = Assay 1, mean ± SD (n = 3), read-out: Ki ± SD, Assay 1
[6] = Assay 2, mean ± SD (n = 3), read-out: Ki ± SD, Assay 2
[7] = Assay 3, mean ± SD (n = 3), read-out: Ki ± SD, Assay 3
[8] = Table 4, read-out: MTS cell viability IC50, Wnt hyperactive SW480 Cells (converted)
[9] = Assay 4, mean ± SD (n = 3), read-out: Ki ± SD, Assay 4

Ki [2, 5] [µM]	Ki [2, 6] [µM]	Structure (SMILES)	further results
0.93 ± 0.092	4.7 ± 0.28	COc1ccc2sc(CCc3c(CCc4ccc(Cl)cc4)c4cc(C(=O)NCc5csc(C)n5)ccc4n3CCc3nn[nH]n3)nc2c1 [Compound 60, 1-(2-(2H-tetrazol-5-yl)ethyl)-3-(4-chlorophenethyl)-2-(2-(5-methoxybenzo[d]thiazol-2-yl)ethyl)-N-((2-methylthiazol-4-yl)methyl)-1H-indole-5-carboxamide]	IC50 [1, 4]: 14 ± 1.9 µM; IC50 [3]: 18 ± 2.8 µM
2.4 ± 0.56	3.2 ± 0.24	COc1ccc2sc(CCc3c(CCc4ccc(Cl)cc4)c4cc(C(=O)NCc5ccc(Cl)cc5)ccc4n3CCc3nn[nH]n3)nc2c1 [Compound 48, 1-(2-(2H-tetrazol-5-yl)ethyl)-N-(4-chlorobenzyl)-3-(4-chlorophenethyl)-2-(2-(5-methoxybenzo-[d]thiazol-2-yl)ethyl)-1H-indole-5-carboxamide]	IC50 [1, 8]: 9.3 ± 4.9 µM
0.4 ± 0.14	0.97 ± 0.14	Cc1ccc(CCc2c(-c3ccsc3)n(CCc3nn[nH]n3)c3ccc(C(=O)O)cc23)cc1 [Compound 78, 1-(2-(2H-tetrazol-5-yl)ethyl)-3-(4-methylphenethyl)-2-(thiophen-3-yl)-1H-indole-5-carboxylic acid]	IC50 [1, 4]: > 400 µM; Ki [2, 7]: 0.25 ± 0.079 µM; Ki [2, 9]: 0.36 ± 0.07 µM; Ki ([2]; Assay 5, mean ± SD (n = 3), read-out: Ki ± SD, Assay 5): 0.23 µM; IC50 [3]: > 400 µM
6.7 ± 1.1	2.7 ± 0.54	O=C(O)c1ccc2c(c1)c(CCc1ccc(F)cc1)c(CCc1nc3ccccc3s1)n2CCc1nn[nH]n1 [Compound 26, 1-(2-(2H-tetrazol-5-yl)ethyl)-2-(2-(benzo[d]thiazol-2-yl)ethyl)-3-(4-fluorophenethyl)-1H-indole-5-carboxylic acid]	–
29 ± 3.3	2 ± 1.2	Cc1ccc(CCc2c(CCc3nc4ccccc4[nH]3)n(CCC(=O)O)c3ccc(C(=O)O)cc23)cc1 [Compound 42, 2-(2-(1H-benzo[d]imidazol-2-yl)ethyl)-1-(2-carboxyethyl)-3-(4-methylphenethyl)-1H-indole-5-carboxylic acid]	–
2.3 ± 0.54	0.87 ± 0.33	Cc1ccc(CCc2c(CCc3nc4ccccc4s3)n(CCc3nn[nH]n3)c3ccc(C(=O)O)cc23)cc1 [Compound 28, 1-(2-(2H-tetrazol-5-yl)ethyl)-2-(2-(benzo[d]thiazol-2-yl)ethyl)-3-(4-methylphenethyl)-1H-indole-5-carboxylic acid]	–
> 51	–	O=C(O)c1ccc2c(c1)c(CCc1ccc(N3CCOCC3)cc1)cn2CCc1nn[nH]n1 [Compound 19, 1-(2-(2H-tetrazol-5-yl)ethyl)-3-(4-morpholinophenethyl)-1H-indole-5-carboxylic acid]	–
5.4 ± 0.76	9.5 ± 1.5	COc1ccc2sc(CCc3c(CCc4ccc(Cl)cc4)c4cc(C(=O)NCC5CCOCC5)ccc4n3CCc3nn[nH]n3)nc2c1 [Compound 64, 1-(2-(2H-tetrazol-5-yl)ethyl)-3-(4-chlorophenethyl)-2-(2-(5-methoxybenzo[d]thiazol-2-yl)ethyl)-N-((tetrahydro-2H-pyran-4-yl)methyl)-1H-indole-5-carboxamide]	–
6.6 ± 0.28	7.6 ± 0.65	O=C(O)c1ccc2c(c1)c(CCC1CCOCC1)cn2CCc1nn[nH]n1 [Compound 21, 1-(2-(2H-tetrazol-5-yl)ethyl)-3-(2-(tetrahydro-2H-pyran-4-yl)ethyl)-1H-indole-5-carboxylic acid]	Ki [2, 7]: 10 ± 0.95 µM; Ki [2, 9]: 5.7 ± 1.1 µM
250 ± 1.2	–	Cc1c(C)n(CCc2nn[nH]n2)c2ccccc12 [Compound 3, 1-(2-(2H-tetrazol-5-yl)ethyl)-2,3-dimethyl-1H-indole]	–

The remaining lines, values behind:

Structure (SMILES)	Ki [2, 5] [µM]	Ki [2, 6] [µM]	further results
Cc1ccc(CCc2c(-c3ccsc3)n(CCc3nn[nH]n3)c3ccc(C(=O)NCc4ccon4)cc23)cc1 [Compound 93, 1-(2-(2H-tetrazol-5-yl)ethyl)-N-(isoxazol-3-ylmethyl)-3-(4-methylphenethyl)-2-(thiophen-3-yl)-1H-indole-5-carboxamide]	7.2 ± 0.77	7.4 ± 0.23	IC50 [1, 4]: 36 ± 3.9 µM; Ki [2, 7]: 13 ± 1.3 µM; IC50 [3]: 44 ± 5.4 µM
COc1ccc2sc(CCc3c(CCc4ccc(Cl)cc4)c4cc(C(=O)NCc5cnccn5)ccc4n3CCc3nn[nH]n3)nc2c1 [Compound 58, 1-(2-(2H-tetrazol-5-yl)ethyl)-3-(4-chlorophenethyl)-2-(2-(5-methoxybenzo[d]thiazol-2-yl)ethyl)-N-(pyrazin-2-ylmethyl)-1H-indole-5-carboxamide]	2 ± 0.29	7.6 ± 0.94	IC50 [1, 4]: 19 ± 1.8 µM; IC50 [3]: 12 ± 1.8 µM
COC(=O)CCn1c(CCc2nc3ccccc3s2)c(CCc2ccc(Cl)cc2)c2cc(C(=O)OC)ccc21 [Compound 43, Methyl 2-(2-(benzo[d]thiazol-2-yl)ethyl)-3-(4-chlorophenethyl)-1-(3-methoxy-3-oxopropyl)-1H-indole-5-carboxylate]	–	–	IC50 [1, 8]: > 400 µM
COc1ccc2sc(CCc3c(CCc4ccc(Cl)cc4)c4cc(C(=O)NCc5ccncc5)ccc4n3CCc3nn[nH]n3)nc2c1 [Compound 56, 1-(2-(2H-tetrazol-5-yl)ethyl)-3-(4-chlorophenethyl)-2-(2-(5-methoxybenzo[d]thiazol-2-yl)ethyl)-N-(pyridin-4-ylmethyl)-1H-indole-5-carboxamide]	4.2 ± 0.43	1.9 ± 0.17	IC50 [1, 4]: 14 ± 1.7 µM; IC50 [3]: 23 ± 2.5 µM
O=C(O)c1ccc2c(c1)c(CCC1CCOCC1)c(-c1ccsc1)n2CCc1nn[nH]n1 [Compound 86, 1-(2-(2H-tetrazol-5-yl)ethyl)-3-(2-(tetrahydro-2H-pyran-4-yl)ethyl)-2-(thiophen-3-yl)-1H-indole-5-carboxylic acid]	1.3 ± 0.4	1.2 ± 0.23	–
COc1ccc2nc(C#Cc3c(CCc4ccc(C)cc4)c4cc(C(=O)O)ccc4n3CCc3nn[nH]n3)sc2c1 [Compound 73, 1-(2-(2H-tetrazol-5-yl)ethyl)-2-((6-methoxybenzo[d]thiazol-2-yl)ethynyl)-3-(4-methylphenethyl)-1H-indole-5-carboxylic acid]	1 ± 0.076	–	–
COc1ccc2nc(C#Cc3c(CCC4CCOCC4)c4cc(C(=O)O)ccc4n3CCc3nn[nH]n3)sc2c1 [Compound 74, 1-(2-(2H-tetrazol-5-yl)ethyl)-2-((6-methoxybenzo[d]thiazol-2-yl)ethynyl)-3-(2-(tetrahydro-2H-pyran-4-yl)ethyl)-1H-indole-5-carboxylic acid]	4.2 ± 0.29	6 ± 0.39	–
COc1ccc2sc(CCc3c(CCc4ccc(Cl)cc4)c4cc(C(=O)NCC5CCCCC5)ccc4n3CCc3nn[nH]n3)nc2c1 [Compound 63, 1-(2-(2H-tetrazol-5-yl)ethyl)-3-(4-chlorophenethyl)-N-(cyclohexylmethyl)-2-(2-(5-methoxybenzo[d]thiazol-2-yl)ethyl)-1H-indole-5-carboxamide]	1.4 ± 0.2	4.3 ± 0.39	–
COc1ccc2sc(CCc3c(CCc4ccc(Cl)cc4)c4cc(C(=O)N[C@H]5CC[C@@H](N)CC5)ccc4n3CCc3nn[nH]n3)nc2c1 [Compound 68, (1s,4s)-4-(1-(2-(2H-tetrazol-5-yl)ethyl)-3-(4-chlorophenethyl)-2-(2-(5-methoxybenzo[d]thiazol-2-yl)ethyl)-1H-indole-5-carboxamido)cyclohexan-1-aminium]	> 24	> 22	–
Cc1ccc(CCc2c(CCc3nc4ccccc4s3)n(CCC(=O)O)c3ccc(C(=O)O)cc23)cc1 [Compound 40, 2-(2-(benzo[d]thiazol-2-yl)ethyl)-1-(2-carboxyethyl)-3-(4-methylphenethyl)-1H-indole-5-carboxylic acid]	5.8 ± 1.3	–	–
